Results on two compounds are retold here after patent US6849716B1, “Methods for designing inhibitors of serine/threonine kinases and tyrosine kinases” (Vertex Pharmaceuticals Incorporated, priority 1998, dated 2005).

One assay addresses ERK2 (Q105A) (Homo sapiens, UniProt P28482, Q105A). In words: Coupled spectrophotometric kinase assay, ERK2 (Q105A). It counts as biochemical.
The next assay concerns the target JNK3 (wild-type) (Homo sapiens, UniProt P53779). The assay is described as follows: Coupled spectrophotometric kinase assay, JNK3 (wild-type).
The target of another assay is JNK3 (M146A/D150G) (Homo sapiens, UniProt P53779, D150G/M146A). In words: Coupled spectrophotometric kinase assay, JNK3 (M146A/D150G).
In a further assay the target is ERK2 (wild-type) (Homo sapiens, UniProt P28482). In words: Coupled spectrophotometric kinase assay, ERK2 (wild-type). It counts as biochemical.
The target of another assay is JNK3 (M146A) (Homo sapiens, UniProt P53779, M146A). The assay is described as follows: Coupled spectrophotometric kinase assay, JNK3 (M146A).
In the next assay the target is ERK2 (Q105T) (Homo sapiens, UniProt P28482, Q105T). In words: Coupled spectrophotometric kinase assay, ERK2 (Q105T). In kind it is biochemical.
The target in a further assay is p38 (Homo sapiens, UniProt Q16539). In words: Coupled spectrophotometric kinase assay, p38. The note with it: read-out: KM for ATP. It counts as biochemical.
Where [1] appears, read: 100 μM ATP, 200 μM EGF receptor peptide, read-out: Inhibition constants, Ki.

JNK3 (M146A), sequence (P53779 40-402 M146A): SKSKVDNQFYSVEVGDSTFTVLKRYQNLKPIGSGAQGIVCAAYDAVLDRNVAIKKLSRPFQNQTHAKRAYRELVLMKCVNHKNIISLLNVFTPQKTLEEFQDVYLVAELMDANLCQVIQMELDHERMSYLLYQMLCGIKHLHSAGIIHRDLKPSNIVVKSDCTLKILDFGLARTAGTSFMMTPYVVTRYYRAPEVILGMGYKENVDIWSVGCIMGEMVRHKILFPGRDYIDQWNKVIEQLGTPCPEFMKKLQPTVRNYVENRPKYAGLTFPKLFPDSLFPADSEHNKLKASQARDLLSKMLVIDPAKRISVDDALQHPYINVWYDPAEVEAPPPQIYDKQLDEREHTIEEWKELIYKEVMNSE
JNK3 (M146A/D150G), sequence (P53779 40-402 M146A/D150G): as the sequence (P53779 40-402 M146A) above, with D111G counted along it
JNK3 (wild-type), sequence (P53779 40-402): as the sequence (P53779 40-402 M146A) above, with A107M counted along it
p38, sequence (Q16539 whole entry): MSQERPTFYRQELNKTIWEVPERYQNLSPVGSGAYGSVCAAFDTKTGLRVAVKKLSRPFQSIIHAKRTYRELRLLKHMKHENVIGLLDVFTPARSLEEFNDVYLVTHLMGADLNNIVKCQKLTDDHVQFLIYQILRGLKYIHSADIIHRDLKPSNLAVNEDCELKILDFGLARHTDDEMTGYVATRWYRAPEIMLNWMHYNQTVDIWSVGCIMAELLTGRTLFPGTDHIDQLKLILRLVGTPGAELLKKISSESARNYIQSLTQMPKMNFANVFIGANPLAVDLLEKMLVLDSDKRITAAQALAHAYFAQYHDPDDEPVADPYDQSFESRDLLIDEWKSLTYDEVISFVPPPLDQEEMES

Turning to `Oc1ccc(-c2nc(-c3ccc(F)cc3)c(-c3ccncc3)[nH]2)cc1` [SB202190, reference compound], the Ki is 0.81 ± 0.19 nM on ERK2 (Q105A) (setting [1]), > 20000 nM at ERK2 (wild-type) (setting [1]) and 6.8 ± 0.6 nM on ERK2 (Q105T) (setting [1]). Moreover, the “sensitivity of wild-type JNK3 (in words)” value at JNK3 (wild-type) (wild-type JNK3) is on record as “moderately sensitive”. Besides, the “sensitivity of the JNK3 double mutant (in words)” value at JNK3 (M146A/D150G) (JNK3 (M146A/D150G) compared with wild-type and single mutant) is on record as “considerably more sensitive than wild-type, but significantly less than observed for the single mutant”. Further, the “increase in sensitivity versus wild-type JNK3” value at JNK3 (M146A) (JNK3 M146A mutant) was ~4,000 fold.

On to `Nc1ncnc2c1ncn2[C@@H]1O[C@H](COP(=O)(O)OP(=O)(O)OP(=O)(O)O)[C@@H](O)[C@H]1O` [ATP], for which the Km came out at 51 ± 6 µM at ERK2 (Q105A) (read-out: KM for ATP); 260 ± 30 µM on p38; 15 µM at JNK3 (wild-type) (read-out: KM for ATP, JNK3 (wild-type)); 311 µM on JNK3 (M146A/D150G) (read-out: KM for ATP, JNK3 (M146A/D150G)); 76 ± 14 µM at ERK2 (wild-type) (read-out: KM for ATP); 75 µM on JNK3 (M146A) (read-out: KM for ATP, JNK3 (M146A)). In addition, the Km on ERK2 (Q105T) (read-out: KM for ATP) amounted to 33 ± 4 µM.
